Measurements from patent US20090029975A1, “1,3-BENZOTHIAZINONE DERIVATIVE AND USE THEREOF” (TAKEDA PHARMACEUTICAL COMPANY LIMITED, priority 2005, published 2009).

Key:
human PPARα = molecular target: T1, human PPARα (Homo sapiens, UniProt Q07869); experiment: PPARα assay: PPRE-dependent transcriptional activation activity (luciferase reporter in COS-1 cells transfected with PPARα and RXRα); type: cell-based; settings: COS-1 cells transfected with PPARα and RXRα expression vectors and pGL3-PPRE4-Tk; about 42 hours incubation with compound; compound-free group = 100%
T1 construct: expressed in transfected cells; host or cells: COS-1 cells
T1 sequence (Q07869 1-468): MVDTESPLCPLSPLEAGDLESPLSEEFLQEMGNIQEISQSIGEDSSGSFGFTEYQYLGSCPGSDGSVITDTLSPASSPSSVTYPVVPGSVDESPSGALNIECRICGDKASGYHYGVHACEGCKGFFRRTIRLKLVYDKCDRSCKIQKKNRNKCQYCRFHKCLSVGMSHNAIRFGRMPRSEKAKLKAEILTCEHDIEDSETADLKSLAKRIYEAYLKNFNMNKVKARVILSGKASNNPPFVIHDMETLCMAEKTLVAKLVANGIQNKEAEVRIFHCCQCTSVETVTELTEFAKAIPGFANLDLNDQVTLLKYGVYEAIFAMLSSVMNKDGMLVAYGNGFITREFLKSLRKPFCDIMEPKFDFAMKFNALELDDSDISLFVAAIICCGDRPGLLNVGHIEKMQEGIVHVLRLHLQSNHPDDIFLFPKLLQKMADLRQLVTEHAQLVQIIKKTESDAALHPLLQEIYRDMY
T1 sequence (P19793 1-462 partner): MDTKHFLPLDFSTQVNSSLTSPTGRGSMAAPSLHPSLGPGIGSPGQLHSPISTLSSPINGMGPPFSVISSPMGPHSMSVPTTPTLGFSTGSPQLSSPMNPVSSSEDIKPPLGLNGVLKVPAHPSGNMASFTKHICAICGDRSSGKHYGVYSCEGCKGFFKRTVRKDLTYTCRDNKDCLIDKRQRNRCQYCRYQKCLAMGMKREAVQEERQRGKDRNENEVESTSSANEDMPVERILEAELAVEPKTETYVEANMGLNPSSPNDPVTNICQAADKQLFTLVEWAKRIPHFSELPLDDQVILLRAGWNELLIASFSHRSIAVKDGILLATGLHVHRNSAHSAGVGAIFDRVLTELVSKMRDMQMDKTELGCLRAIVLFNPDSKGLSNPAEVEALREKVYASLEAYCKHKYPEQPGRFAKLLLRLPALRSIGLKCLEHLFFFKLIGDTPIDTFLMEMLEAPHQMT
Procedure: COS-1 cells were suspended in Dulbecco's Modified Eagle Medium (10% FBS, D-MEM) supplemented with 10% heat-inactivated fetal calf serum to 1×10^5 cells/ml and a 25 ml aliquot was seeded on a 75 cm^2 cell culture flask, followed by incubation in 5% CO2 at 37° C. for about 15 hours. PPARα expression vector pMCMV-neo-rPPARα and RXRα expression vector pMCMV-neo-rRXRα, in which human PPARα gene and human RXRα gene were inserted into pMCMV-neo (manufactured by Promega Corp.) respectively, and Luciferase reporter vector pGL3-PPRE4-Tk, in which four PPREs (aggacaaaggtca; SEQ ID NO: 2) were inserted into pGL3-Promoter Vector (manufactured by Promega Corp.) in tandem, were transfected to the cells using FuGENE6 (Transfection reagent: manufactured by Roche), and then incubation for about 24 hours. After completion of the incubation, the cells were recovered and suspended in 0.1% bovine serum albumin (Sigma)-containing D-MEM to 5×10^4 cells/ml. A 100 μl aliquot was seeded on each well of a 96-well plate, followed by incubation in 5% CO2 at 37° C. for about 4 hours. Next, D-MEM containing a test compound (compound obtained in EXAMPLE 2, 8, 10 or 12) was added thereto, followed by incubation in 5% CO2 at 37° C. for about 42 hours. After completion of the incubation, a 801 aliquot was added to each well of Steady-Glo Reagent (manufactured by Promega Corp.). After allowing to stand for 30 minutes at room temperature, fluorescence levels by luciferase were determined using a WALLAC ARVO SX (manufactured by Perkin-Elmer). Taking the emitted luminescence of test compound-free group as 100%, the PPRE-dependent transcriptional activation was shown in terms of the concentration of test compound, which caused to emit the luminescence of 200% (EC200: μM).

[1] = system: ARE of rat glutathione S-transferase Ya subunit gene; experiment: Assay for ARE-dependent transcriptional activation activity (luciferase reporter pGL3-ARE in rat H9c2 cells); type: cell-based; settings: rat H9c2 cells transfected with pGL3-ARE; about 24 hours incubation with compound; compound-free group = 100%
Procedure: Rat H9c2 cells were suspended in Dulbecco's Modified Eagle Medium (10% FBS, D-MEM) supplemented with 5% heat-inactivated fetal calf serum to 7×10^4 cells/ml and a 18 ml aliquot was seeded on a Petri dish for cell culture, followed by incubation in 5% CO2 at 37° C. for about 16 hours. ARE ([…]; SEQ ID NO: 1) of rat glutathione S-transferase Ya subunit gene was incorporated into pGL3-Promoter Vector (manufactured by Promega Corp.) and the resulting luciferase reporter vector pGL3-ARE was transfected to the cells using FuGENE6 (Transfection reagent: manufactured by Roche), followed by additional incubation for about 7 hours. After completion of the incubation, the cells were recovered and suspended in 10% FBS-containing D-MEM to 1×10^5 cells/ml. A 100 μl aliquot was seeded on each well of a 96-well plate, followed by incubation in 5% CO2 at 37° C. for about 17 hours. Next, the cells were washed with D-MEM to remove serum, and D-MEM containing a test compound (compound obtained in EXAMPLE 2, 8, 10, 12, 22 or 23) was added to the cells, followed by incubation in 5% CO2 at 37° C. for about 24 hours. After completion of the incubation, 801 each of Steady-Glo Reagent (manufactured by Promega Corp.) was added to each well. After allowing to stand at room temperature for 40 minutes, fluorescence levels by luciferase were determined using a WALLAC ARVO SX (manufactured by Perkin-Elmer). Taking the emitted luminescence of test compound-free group as 100%, the ARE-dependent transcriptional activation was shown in terms of the concentration of test compound, which caused to emit the luminescence of 200% (EC200: μM).

Row | Compound | melting point | EC200 (concentration of test compound causing luminescence of 200% of the test compound-free group), PPRE-dependent transcriptional activation (human PPARα) | EC200 (concentration of test compound causing luminescence of 200% of the test compound-free group), ARE-dependent transcriptional activation [1]
1 | CS(=O)(=O)c1cc(CCC(=O)O)nc(-c2nc(=O)c3ccccc3s2)c1 [EXAMPLE 2, 3-[6-(4-Oxo-4H-1,3-benzothiazin-2-yl)-4-(methylsulfonyl)pyridin-2-yl]propanoic acid] | – | >100 µM | 1.3 µM
2 | Cc1ccc2c(=O)nc(-c3cc(S(C)(=O)=O)cc(CCC(=O)OC(C)(C)C)n3)sc2c1 [compound 11, Tert-butyl 3-[6-(7-methyl-4-oxo-4H-1,3-benzothiazin-2-yl)-4-(methylsulfonyl)pyridin-2-yl]propanoate] | 178 to 178.4 °C | – | –
3 | CCN(CC)C(=O)COC(=O)CCc1cc(S(C)(=O)=O)cc(-c2nc(=O)c3ccc(Cl)cc3s2)n1 [EXAMPLE 23, 2-(Diethylamino)-2-oxoethyl 3-[6-(7-chloro-4-oxo-4H-1,3-benzothiazin-2-yl)-4-(methylsulfonyl)pyridin-2-yl]propanoate] | – | – | 0.6 µM
4 | CC(C)(C)OC(=O)CCc1cc(S(C)(=O)=O)cc(-c2nc(=O)c3ccc(F)cc3s2)n1 [compound 9, Tert-butyl 3-[6-(7-fluoro-4-oxo-4H-1,3-benzothiazin-2-yl)-4-(methylsulfonyl)pyridin-2-yl]propanoate] | 177.6 to 178 °C | – | –
5 | Cc1ccc2c(=O)nc(-c3cc(S(C)(=O)=O)cc(CCC(=O)O)n3)sc2c1 [EXAMPLE 12, 3-[6-(7-Methyl-4-oxo-4H-1,3-benzothiazin-2-yl)-4-(methylsulfonyl)pyridin-2-yl]propanoic acid] | 238.9 to 239.1 °C | >100 µM | 1.6 µM
6 | Cc1oc(=O)oc1COC(=O)CCc1cc(S(C)(=O)=O)cc(-c2nc(=O)c3ccc(Cl)cc3s2)n1 [compound 20, (5-Methyl-2-oxo-1,3-dioxolen-4-yl)methyl 3-[6-(7-chloro-4-oxo-4H-1,3-benzothiazin-2-yl)-4-(methylsulfonyl)pyridin-2-yl]propanoate] | 183.1 to 183.2 °C | – | –
7 | CCN(CC)CCOC(=O)CCc1cc(S(C)(=O)=O)cc(-c2nc(=O)c3ccc(Cl)cc3s2)n1 [EXAMPLE 22, 2-(Diethylamino)ethyl 3-[6-(7-chloro-4-oxo-4H-1,3-benzothiazin-2-yl)-4-(methylsulfonyl)pyridin-2-yl]propanoate] | 150.5 to 151.5 °C | – | 0.61 µM
8 | CS(=O)(=O)c1cc(CCC(=O)O)nc(-c2nc(=O)c3ccc(F)cc3s2)c1 [EXAMPLE 10, 3-[6-(7-fluoro-4-oxo-4H-1,3-benzothiazin-2-yl)-4-(methylsulfonyl)pyridin-2-yl]propanoic acid] | 235.8 to 236.2 °C | >100 µM | 1.7 µM

Further lines, with some results ahead:

Row | melting point | EC200 (concentration of test compound causing luminescence of 200% of the test compound-free group), PPRE-dependent transcriptional activation (human PPARα) | Compound | EC200 (concentration of test compound causing luminescence of 200% of the test compound-free group), ARE-dependent transcriptional activation [1]
9 | 240 to 240.2 °C | – | CCOC(=O)CCc1cc(S(C)(=O)=O)cc(-c2nc(=O)c3ccc(Cl)cc3s2)n1 [EXAMPLE 13, Ethyl 3-[6-(7-chloro-4-oxo-4H-1,3-benzothiazin-2-yl)-4-(methylsulfonyl)pyridin-2-yl]propanoate] | –
10 | 203.4 to 203.6 °C | – | COC(=O)CCc1cc(S(C)(=O)=O)cc(-c2nc(=O)c3ccc(Cl)cc3s2)n1 [EXAMPLE 17, Methyl 3-[6-(7-chloro-4-oxo-4H-1,3-benzothiazin-2-yl)-4-(methylsulfonyl)pyridin-2-yl]propanoate] | –
11 | 235.4 to 235.5 °C | – | CCCOC(=O)CCc1cc(S(C)(=O)=O)cc(-c2nc(=O)c3ccc(Cl)cc3s2)n1 [compound 19, Propyl 3-[6-(7-chloro-4-oxo-4H-1,3-benzothiazin-2-yl)-4-(methylsulfonyl)pyridin-2-yl]propanoate] | –
12 | 228.8 to 228.9 °C | >100 µM | CS(=O)(=O)c1cc(CCC(=O)O)nc(-c2nc(=O)c3ccc(Cl)cc3s2)c1 [EXAMPLE 8, 3-[6-(7-Chloro-4-oxo-4H-1,3-benzothiazin-2-yl)-4-(methylsulfonyl)pyridin-2-yl]propanoic acid] | 0.94 µM
13 | 240 to 241 °C | – | CS(=O)(=O)c1cc(CCC(=O)OCC(O)CO)nc(-c2nc(=O)c3ccc(Cl)cc3s2)c1 (stereo not shown) [compound 21, 2,3-Dihydroxypropyl 3-[6-(7-chloro-4-oxo-4H-1,3-benzothiazin-2-yl)-4-(methylsulfonyl)pyridin-2-yl]propanoate] | –
14 | 184.3 to 184.5 °C | – | CC(C)(C)OC(=O)CCc1cc(S(C)(=O)=O)cc(-c2nc(=O)c3ccc(Cl)cc3s2)n1 [compound 7, Tert-butyl 3-[6-(7-chloro-4-oxo-4H-1,3-benzothiazin-2-yl)-4-(methylsulfonyl)pyridin-2-yl]propanoate] | –
